The values that follow come from patent US11634397B2, “Process and intermediates for the preparation of Fluensulfone” (ADAMA MAKHTESHIM LTD., priority 2018, dated 2023).

This data set in a line: Solubility of 2-mercaptothiazole estimated in a variety of solvents at room temperature. Type of data set: physicochemical. The settings on record: stirred overnight. On the procedure: The solubility of 2-mercaptothiazole was estimated in a variety of solvents at room temperature. Large amount of 2-mercaptothiazole was added to the tested solvent. The mixture was stirred overnight. The residual solid was removed by filtration. Then the solution was analyzed by quantitative analysis vs. analytical standard to determine the concentration of the 2-mercaptothiazole.

Consider `Sc1nccs1` [2-mercaptothiazole], for which the “Solubility of 2-mercaptothiazole” value is, setting by setting: (solvent 1,2-dichlorobenzene) 1.91 wt %; (solvent 1,2-dichloroethane) 8.43 wt %; (solvent CPME (cyclopentyl methyl ether)) 6.5 wt %; (solvent IBN (iso-butyronitrile)) 20.2 wt %; (solvent IPAc (isopropyl acetate)) 14.8 wt %; (solvent MCB (mono-chlorobenzene)) 2.4 wt %. Moreover, the “Solubility of 2-mercaptothiazole” value runs as follows: (solvent NBN (n-butyronitrile)) 28.9 wt %; (solvent pentanol) 19.1 wt %; (solvent toluene) 2.2 wt %.
